Measurements: ChEMBL document CHEMBL4177558, “Rapid, microwave-accelerated synthesis and anti-osteoporosis activities evaluation of Morusin scaffolds and Morusignin L scaffolds” (2017)
Active and inactive are the calls of the source. No cut-off for these calls is given here.

How the values were obtained:
[1] = tested on: MC3T3-E1; test: Induction of osteoblast proliferation in mouse MC3T3-E1 cells assessed as growth rate relative to untreated control at 10^-5 mol/L after 48 hrs by MTT assay; assay type: functional; conditions: MC3T3-E1, 48 h, read-out: Activity
[2] = tested on: MC3T3-E1; test: Induction of osteoblast proliferation in mouse MC3T3-E1 cells assessed a growth rate relative to untreated control at 10^-6 mol/L after 48 hrs by MTT assay; assay type: functional
[3] = tested on: MC3T3-E1; test: Induction of osteoblast proliferation in mouse MC3T3-E1 cells assessed a growth rate relative to untreated control at 10^-7 mol/L after 48 hrs by MTT assay; assay type: functional
[4] = tested on: MC3T3-E1; test: Induction of osteoblast proliferation in mouse MC3T3-E1 cells assessed a growth rate relative to untreated control at 10^-8 mol/L after 48 hrs by MTT assay; assay type: functional
[5] = tested on: Osteoclast; test: Anti-osteoporotic activity assessed as osteoclast differentiation in rabbit bone marrow-derived osteoclast at 1 x 10^-5 mol/L after 8 days by TRAP staining-based phase-contrast microscopic method; assay type: functional, cell-based; conditions: Oryctolagus cuniculus
[6] = tested on: Bone; test: Anti-osteoporotic activity in bovine bone assessed as bone resorption of osteoclast at 1 x 10^-5 mol/L after 8 days by toluidine blue staining-based method; assay type: functional, tissue-based; conditions: Bos taurus; Bone element
[7] = tested on: Bone; test: Anti-osteoporotic activity in bovine bone assessed as bone resorption of osteoclast at 1 x 10^-8 mol/L after 8 days by toluidine blue staining-based method; assay type: functional, tissue-based; conditions: Bos taurus; Bone element
[8] = tested on: Osteoclast; test: Inhibition of New Zealand white rabbit bone marrow-derived osteoclast differentiation assessed as reduction in TRAP activity in at 1 x 10^-5 mol/L measured on day 8 post dose by StrACP assay; assay type: functional, cell-based; conditions: Oryctolagus cuniculus
[9] = tested on: Osteoclast; test: Inhibition of New Zealand white rabbit bone marrow-derived osteoclast differentiation assessed as reduction in TRAP positive cells at 1 x 10^-5 to 1 x 10^-8 mol/L measured on day 8 post dose by leukocyte acid phosphatase-staining based phase contrast microscopy; assay type: functional, cell-based; conditions: Oryctolagus cuniculus
[10] = tested on: Osteoclast; test: Inhibition of New Zealand white rabbit bone marrow-derived osteoclast differentiation assessed as reduction in TRAP activity in at 1 x 10^-6 to 1 x 10^-8 mol/L measured on day 8 post dose by StrACP assay; assay type: functional, cell-based; conditions: Oryctolagus cuniculus

SMILES | growth at 10 µM [1] | Activity [2] | Activity [3] | Activity [4] | Activity [5] | Activity [6] | Activity [7] | inhibition [8] | inhibition [9] | inhibition [10]
CC1(C)C=Cc2c(cc(O)c3c(=O)c(CCC(C)(O)c4ccc(F)cc4)c(-c4ccccc4Br)oc23)O1 (centres undefined) | 17.2% | 7.88% | 6.42% | 4.55% | Active | Active |  |  |  | 
CC(C)(O)CCc1c(-c2ccccc2Br)oc2c3c(cc(O)c2c1=O)OC(C)(C)C=C3 | 2.6% | 0.33% | 4.22% | 3.41% |  |  |  |  |  | 
CC(C)Oc1ccc2c(=O)c(-c3ccccc3)coc2c1 [IPRIFLAVONE] |  |  |  | 4.09 - 17.3% |  |  | Active |  |  | 
CC(C)=CCc1c(-c2ccc(O)cc2O)oc2c3c(cc(O)c2c1=O)OC(C)(C)C=C3 [MORUSIN] | 16% | 9.57% | 3.88% | 7.13% |  |  |  |  |  | 
CC(C)(O)CCc1c(-c2ccccc2Br)oc2cc3c(c(O)c2c1=O)C=CC(C)(C)O3 | 13.4% | 7.7% | 4.54% | 8.54% | Active | Active |  |  |  | 
CC(C)(O)CCc1c(-c2ccccc2Cl)oc2c3c(cc(O)c2c1=O)OC(C)(C)C=C3 | 4.29% | 2.97% | 1.78% | 3.08% |  |  |  |  |  | 
CC1(C)C=Cc2c(cc3oc(-c4ccccc4Br)c(CCC(C)(O)c4ccc(F)cc4)c(=O)c3c2O)O1 (centres undefined) | -4.88% | 1.49% | 6.25% | 1.91% |  |  |  |  |  | 
CC1(C)C=Cc2c(cc(O)c3c(=O)c(CCC(C)(O)c4ccc(F)cc4)c(-c4ccccc4Cl)oc23)O1 (centres undefined) | 15.9% | 6.35% | 6.89% | 6.02% |  |  |  |  |  | 
CC1(C)C=Cc2c(cc3oc(-c4ccccc4Br)c(CCC(C)(O)c4ccccc4)c(=O)c3c2O)O1 (centres undefined) | 12.1% | 17.66% | 6.08% | 10.13% |  |  |  |  |  | 
CC(C)(O)CCc1c(-c2ccccc2Cl)oc2cc3c(c(O)c2c1=O)C=CC(C)(C)O3 | 14.3% | 4.61% | 3.74% | 6.39% |  |  |  |  |  | 
CC1(C)C=Cc2c(cc3oc(-c4ccccc4Cl)c(CCC(C)(O)c4ccc(F)cc4)c(=O)c3c2O)O1 (centres undefined) | 4.88% | 11.03% | 6.45% | 6.83% |  |  |  |  |  | 
CC(=O)CCc1c(-c2ccccc2Cl)oc2c3c(cc(O)c2c1=O)OC(C)(C)C=C3 | 18.3% | 6.01% | 5.13% | 0.06% |  |  |  |  |  | 
CC(O)CCc1c(-c2ccccc2Cl)oc2c3c(cc(O)c2c1=O)OC(C)(C)C=C3 (centres undefined) | 24% | 5.18% | 2.37% | 0.53% |  |  |  |  |  | 
CC(O)CCc1c(-c2ccccc2Br)oc2c3c(cc(O)c2c1=O)OC(C)(C)C=C3 (centres undefined) | 19.5% | 4.94% | 6.7% | 7.02% |  |  |  |  |  | 
CC(O)CCc1c(-c2ccccc2Cl)oc2cc3c(c(O)c2c1=O)C=CC(C)(C)O3 (centres undefined) | 27.1% | 5.63% | 7.45% | 11.08% | Active | Active |  |  |  | 
CC(=O)CCc1c(-c2ccccc2Cl)oc2cc3c(c(O)c2c1=O)C=CC(C)(C)O3 | 7.62% | 9% | 9.58% | 0.85% |  |  |  |  |  | 
CC1(C)C=Cc2c(cc(O)c3c(=O)c(CCC(C)(O)c4ccccc4)c(-c4ccccc4Br)oc23)O1 (centres undefined) | 21.7% | 16.65% | 14.74% | 8.56% | Active | Active |  |  |  | 
CC(=O)CCc1c(-c2ccccc2Br)oc2c3c(cc(O)c2c1=O)OC(C)(C)C=C3 | 12.8% | 0.83% | 0.46% | 2.42% |  |  |  |  |  | 
CC(=O)CCc1c(-c2ccccc2Br)oc2cc3c(c(O)c2c1=O)C=CC(C)(C)O3 | 10.6% | 0.88% | 0.79% | 0.38% |  |  |  |  |  | 
CC(C)(O)CCc1c(-c2ccc(O)cc2O)oc2cc3c(c(O)c2c1=O)C=CC(C)(C)O3 | -4.81% | 6.69% | 5.88% | 2.26% |  | Active |  | Active | Active | inactive
CC(O)CCc1c(-c2ccccc2Br)oc2cc3c(c(O)c2c1=O)C=CC(C)(C)O3 (centres undefined) | 10.5% | 2.8% | 2.87% | -0.52% |  |  |  |  |  | 
